Measured values published in ChEMBL document CHEMBL3992526, “Antagonizing NOD2 Signaling with Conjugates of Paclitaxel and Muramyl Dipeptide Derivatives Sensitizes Paclitaxel Therapy and Significantly Prevents Tumor Metastasis” (J Med Chem, 2017).

The compounds below were run against T1, Nucleotide-binding oligomerization domain-containing protein 2 (Homo sapiens, UniProt Q9HC29) (assay: Inhibition of MDP-induced human NOD2 signaling expressed in HEK-Blue cells preincubated for 3 hrs followed by MDP-stimulation for 20 hrs by spectrophotometry based SEAP reporter gene assay).
Type: cell-based

T1 sequence (Q9HC29 whole entry, the tested form may be a part): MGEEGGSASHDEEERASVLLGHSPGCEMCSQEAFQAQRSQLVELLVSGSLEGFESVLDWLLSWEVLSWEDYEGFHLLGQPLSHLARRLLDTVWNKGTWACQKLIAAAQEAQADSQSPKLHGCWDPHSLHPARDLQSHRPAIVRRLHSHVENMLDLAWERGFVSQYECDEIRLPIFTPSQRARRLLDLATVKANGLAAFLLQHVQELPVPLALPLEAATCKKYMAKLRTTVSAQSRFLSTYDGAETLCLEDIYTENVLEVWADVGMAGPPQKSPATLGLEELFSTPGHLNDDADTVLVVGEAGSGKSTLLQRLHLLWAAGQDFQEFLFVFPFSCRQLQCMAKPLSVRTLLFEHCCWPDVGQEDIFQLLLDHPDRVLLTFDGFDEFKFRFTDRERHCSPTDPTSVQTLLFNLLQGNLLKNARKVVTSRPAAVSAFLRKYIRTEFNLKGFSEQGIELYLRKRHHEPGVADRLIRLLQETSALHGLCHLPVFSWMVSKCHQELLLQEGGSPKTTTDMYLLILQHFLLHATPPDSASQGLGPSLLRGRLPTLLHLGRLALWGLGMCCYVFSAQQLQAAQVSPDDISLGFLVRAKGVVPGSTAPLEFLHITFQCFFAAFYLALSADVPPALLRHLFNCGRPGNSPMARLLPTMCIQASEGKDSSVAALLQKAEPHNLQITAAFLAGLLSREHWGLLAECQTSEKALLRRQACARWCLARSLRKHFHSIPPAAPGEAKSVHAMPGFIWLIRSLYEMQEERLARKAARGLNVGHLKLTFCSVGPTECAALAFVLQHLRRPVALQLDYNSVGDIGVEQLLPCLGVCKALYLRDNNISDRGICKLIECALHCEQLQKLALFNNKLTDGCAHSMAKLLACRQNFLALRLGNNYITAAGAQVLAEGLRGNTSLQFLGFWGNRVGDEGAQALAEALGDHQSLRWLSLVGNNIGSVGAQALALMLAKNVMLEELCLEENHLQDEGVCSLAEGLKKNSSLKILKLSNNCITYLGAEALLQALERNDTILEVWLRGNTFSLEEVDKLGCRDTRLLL

IC50 [µM] | Structure (SMILES)
5.01 | CC(=O)O[C@@]12CO[C@@H]1C[C@H](O)[C@@]1(C)C(=O)[C@H](O)C3=C(C)[C@@H](OC(=O)[C@H](O)[C@@H](NC(=O)OC(C)(C)C)c4ccccc4)C[C@@](O)([C@@H](OC(=O)c4ccccc4)[C@H]21)C3(C)C [DOCETAXEL ANHYDROUS]

The compounds below were run against T1, Nucleotide-binding oligomerization domain-containing protein 2 (assay: Inhibition of MDP-induced human NOD2 signaling expressed in HEK-Blue cells at 10 uM preincubated for 3 hrs followed by MDP-stimulation for 20 hrs by spectrophotometry based SEAP reporter gene assay relative to control).
Type: cell-based

Structure (SMILES) | inhibition [%]
CC(=O)O[C@H]1C(=O)[C@@]2(C)[C@H]([C@H](OC(=O)c3ccccc3)[C@]3(O)C[C@H](OC(=O)[C@H](OCCC(=O)NCCCC[C@H](NC(=O)CC[C@@H](NC(=O)[C@H](C)NC(=O)/C=C/c4ccc(F)c(F)c4)C(N)=O)C(=O)O)[C@@H](NC(=O)c4ccccc4)c4ccccc4)C(C)=C1C3(C)C)[C@]1(OC(C)=O)CO[C@@H]1C[C@@H]2O | 29
CC(=O)O[C@H]1C(=O)[C@@]2(C)[C@H]([C@H](OC(=O)c3ccccc3)[C@]3(O)C[C@H](OC(=O)[C@H](OCCC(=O)NCCCC[C@H](NC(=O)CC[C@@H](NC(=O)[C@H](C)NC(=O)/C=C/c4ccc(F)cc4)C(N)=O)C(=O)O)[C@@H](NC(=O)c4ccccc4)c4ccccc4)C(C)=C1C3(C)C)[C@]1(OC(C)=O)CO[C@@H]1C[C@@H]2O | 27
CC(=O)O[C@@]12CO[C@@H]1C[C@H](O)[C@@]1(C)C(=O)[C@H](O)C3=C(C)[C@@H](OC(=O)[C@H](OCCC(=O)NCCCC[C@H](NC(=O)CC[C@@H](NC(=O)[C@H](C)NC(=O)COc4cccc5ccccc45)C(N)=O)C(=O)O)[C@@H](NC(=O)C(C)(C)C)c4ccccc4)C[C@@](O)([C@@H](OC(=O)c4ccccc4)[C@H]21)C3(C)C | 34
CC(=O)O[C@@]12CO[C@@H]1C[C@H](O)[C@@]1(C)C(=O)[C@H](O)C3=C(C)[C@@H](OC(=O)[C@H](OCCC(=O)NCCCC[C@H](NC(=O)CC[C@@H](NC(=O)[C@H](C)NC(=O)/C=C/c4ccc(C)cc4)C(N)=O)C(=O)O)[C@@H](NC(=O)C(C)(C)C)c4ccccc4)C[C@@](O)([C@@H](OC(=O)c4ccccc4)[C@H]21)C3(C)C | 25
CC(=O)O[C@@]12CO[C@@H]1C[C@H](O)[C@@]1(C)C(=O)[C@H](O)C3=C(C)[C@@H](OC(=O)[C@H](OCCC(=O)NCCCC[C@H](NC(=O)CC[C@@H](NC(=O)[C@H](C)NC(=O)/C=C/c4ccc(F)cc4Cl)C(N)=O)C(N)=O)[C@@H](NC(=O)C(C)(C)C)c4ccccc4)C[C@@](O)([C@@H](OC(=O)c4ccccc4)[C@H]21)C3(C)C | 58
CCCCOC(=O)[C@H](OCCC(=O)NCCCC[C@H](NC(=O)CC[C@@H](NC(=O)[C@H](C)NC(=O)/C=C/c1ccc(Cl)cc1F)C(N)=O)C(N)=O)[C@@H](NC(=O)c1ccccc1)c1ccccc1 | -6
CC(=O)O[C@@]12CO[C@@H]1C[C@H](O)[C@@]1(C)C(=O)[C@H](OCCC(=O)NCCCC[C@H](NC(=O)CC[C@@H](NC(=O)[C@H](C)NC(=O)/C=C/c3ccc(Cl)cc3F)C(N)=O)C(N)=O)C3=C(C)[C@@H](O)C[C@@](O)([C@@H](OC(=O)c4ccccc4)[C@H]21)C3(C)C | 22
CC(=O)O[C@H]1C(=O)[C@@]2(C)[C@H]([C@H](OC(=O)c3ccccc3)[C@]3(O)C[C@H](OC(=O)[C@H](OCCC(=O)NCCCC[C@H](NC(=O)CC[C@@H](NC(=O)[C@H](C)NC(=O)/C=C/c4ccc(Cl)cc4F)C(N)=O)C(=O)O)[C@@H](NC(=O)c4ccccc4)c4ccccc4)C(C)=C1C3(C)C)[C@]1(OC(C)=O)CO[C@@H]1C[C@@H]2O | 45
CC(=O)O[C@H]1C(=O)[C@@]2(C)[C@H]([C@H](OC(=O)c3ccccc3)[C@]3(O)C[C@H](OC(=O)[C@H](OCCC(=O)NCCCC[C@H](NC(=O)CC[C@@H](NC(=O)[C@H](C)NC(=O)/C=C/c4ccc(C)cc4)C(N)=O)C(=O)O)[C@@H](NC(=O)c4ccccc4)c4ccccc4)C(C)=C1C3(C)C)[C@]1(OC(C)=O)CO[C@@H]1C[C@@H]2O | 41
CC(=O)O[C@H]1C(=O)[C@]2(C)[C@@H](OCCC(=O)NCCCC[C@H](NC(=O)CC[C@@H](NC(=O)[C@H](C)NC(=O)/C=C/c3ccc(Cl)cc3F)C(N)=O)C(N)=O)C[C@H]3OC[C@@]3(OC(C)=O)[C@H]2[C@H](OC(=O)c2ccccc2)[C@]2(O)C[C@H](O)C(C)=C1C2(C)C | 9
CC(=O)O[C@H]1C(=O)[C@@]2(C)[C@H]([C@H](OC(=O)c3ccccc3)[C@]3(O)C[C@H](OC(=O)[C@H](OCCC(=O)NCCCC[C@H](NC(=O)CC[C@@H](NC(=O)[C@H](C)NC(=O)/C=C/c4ccc(Cl)cc4)C(N)=O)C(=O)O)[C@@H](NC(=O)c4ccccc4)c4ccccc4)C(C)=C1C3(C)C)[C@]1(OC(C)=O)CO[C@@H]1C[C@@H]2O | 44
CC(=O)O[C@@]12CO[C@@H]1C[C@H](O)[C@@]1(C)C(=O)[C@H](O)C3=C(C)[C@@H](OC(=O)[C@H](OCCC(=O)NCCCC[C@H](NC(=O)CC[C@@H](NC(=O)[C@H](C)NC(=O)c4ccc5ccccc5n4)C(N)=O)C(=O)O)[C@@H](NC(=O)C(C)(C)C)c4ccccc4)C[C@@](O)([C@@H](OC(=O)c4ccccc4)[C@H]21)C3(C)C | 28
CC(=O)O[C@H]1C(=O)[C@@]2(C)[C@H]([C@H](OC(=O)c3ccccc3)[C@]3(O)C[C@H](OC(=O)[C@H](OCCC(=O)NCCCC[C@H](NC(=O)CC[C@@H](NC(=O)[C@H](C)NC(=O)/C=C/c4ccc(F)cc4F)C(N)=O)C(=O)O)[C@@H](NC(=O)c4ccccc4)c4ccccc4)C(C)=C1C3(C)C)[C@]1(OC(C)=O)CO[C@@H]1C[C@@H]2O | 21
CC(=O)O[C@@]12CO[C@@H]1C[C@H](O)[C@@]1(C)C(=O)[C@H](O)C3=C(C)[C@@H](OC(=O)[C@H](OCCC(=O)NCCCC[C@H](NC(=O)CC[C@@H](NC(=O)[C@H](C)NC(=O)/C=C/c4ccc(F)c(F)c4)C(N)=O)C(=O)O)[C@@H](NC(=O)C(C)(C)C)c4ccccc4)C[C@@](O)([C@@H](OC(=O)c4ccccc4)[C@H]21)C3(C)C | 24
CC(=O)O[C@H]1C(=O)[C@@]2(C)[C@H]([C@H](OC(=O)c3ccccc3)[C@]3(O)C[C@H](OCCC(=O)NCCCC[C@H](NC(=O)CC[C@@H](NC(=O)[C@H](C)NC(=O)/C=C/c4ccc(Cl)cc4F)C(N)=O)C(N)=O)C(C)=C1C3(C)C)[C@]1(OC(C)=O)CO[C@@H]1C[C@@H]2O | 6
CC(=O)O[C@H]1C(=O)[C@@]2(C)[C@H]([C@H](OC(=O)c3ccccc3)[C@]3(O)C[C@H](OC(=O)[C@H](OCCC(=O)NCCCC[C@H](NC(=O)CC[C@@H](NC(=O)[C@H](C)NC(=O)/C=C/c4ccc(Br)cc4)C(N)=O)C(=O)O)[C@@H](NC(=O)c4ccccc4)c4ccccc4)C(C)=C1C3(C)C)[C@]1(OC(C)=O)CO[C@@H]1C[C@@H]2O | 44
COc1cccc(/C=C/C(=O)N[C@@H](C)C(=O)N[C@H](CCC(=O)N[C@@H](CCCCNC(=O)CCO[C@@H](C(=O)O[C@H]2C[C@@]3(O)[C@@H](OC(=O)c4ccccc4)[C@@H]4[C@]5(OC(C)=O)CO[C@@H]5C[C@H](O)[C@@]4(C)C(=O)[C@H](OC(C)=O)C(=C2C)C3(C)C)[C@@H](NC(=O)c2ccccc2)c2ccccc2)C(=O)O)C(N)=O)c1 | 45
COC(=O)[C@H](OCCC(=O)NCCCC[C@H](NC(=O)CC[C@@H](NC(=O)[C@H](C)NC(=O)/C=C/c1ccc(Cl)cc1F)C(N)=O)C(N)=O)[C@@H](NC(=O)c1ccccc1)c1ccccc1 | -7

Further lines, results first:

inhibition [%] | Structure (SMILES)
20 | CC(=O)O[C@@]12CO[C@@H]1C[C@H](O)[C@@]1(C)C(=O)[C@H](O)C3=C(C)[C@@H](OC(=O)[C@H](OCCC(=O)NCCCC[C@H](NC(=O)CC[C@@H](NC(=O)[C@H](C)NC(=O)c4ccccc4)C(N)=O)C(=O)O)[C@@H](NC(=O)C(C)(C)C)c4ccccc4)C[C@@](O)([C@@H](OC(=O)c4ccccc4)[C@H]21)C3(C)C
23 | CC(=O)O[C@@]12CO[C@@H]1C[C@H](O)[C@@]1(C)C(=O)[C@H](O)C3=C(C)[C@@H](OC(=O)[C@H](OCCC(=O)NCCCC[C@H](NC(=O)CC[C@@H](NC(=O)[C@H](C)NC(=O)/C=C/c4ccc(O)cc4)C(N)=O)C(=O)O)[C@@H](NC(=O)C(C)(C)C)c4ccccc4)C[C@@](O)([C@@H](OC(=O)c4ccccc4)[C@H]21)C3(C)C
32 | CC(=O)O[C@@]12CO[C@@H]1C[C@H](O)[C@@]1(C)C(=O)[C@H](O)C3=C(C)[C@@H](OC(=O)[C@H](OCCC(=O)NCCCC[C@H](NC(=O)CC[C@@H](NC(=O)[C@H](C)NC(=O)/C=C/c4ccc(Cl)cc4F)C(N)=O)C(=O)O)[C@@H](NC(=O)C(C)(C)C)c4ccccc4)C[C@@](O)([C@@H](OC(=O)c4ccccc4)[C@H]21)C3(C)C
14 | CC(=O)O[C@@]12CO[C@@H]1C[C@H](O)[C@@]1(C)C(=O)[C@H](O)C3=C(C)[C@@H](OC(=O)[C@H](OCCC(=O)NCCCC[C@H](NC(=O)CC[C@@H](NC(=O)[C@H](C)NC(=O)c4ccc(Cl)cc4)C(N)=O)C(=O)O)[C@@H](NC(=O)C(C)(C)C)c4ccccc4)C[C@@](O)([C@@H](OC(=O)c4ccccc4)[C@H]21)C3(C)C
26 | CC(=O)O[C@@]12CO[C@@H]1C[C@H](O)[C@@]1(C)C(=O)[C@H](O)C3=C(C)[C@@H](OC(=O)[C@H](OCCC(=O)NCCCC[C@H](NC(=O)CC[C@@H](NC(=O)[C@H](C)NC(=O)/C=C/c4cccs4)C(N)=O)C(=O)O)[C@@H](NC(=O)C(C)(C)C)c4ccccc4)C[C@@](O)([C@@H](OC(=O)c4ccccc4)[C@H]21)C3(C)C
28 | CC(=O)O[C@@]12CO[C@@H]1C[C@H](O)[C@@]1(C)C(=O)[C@H](O)C3=C(C)[C@@H](OC(=O)[C@H](OCCC(=O)NCCCC[C@H](NC(=O)CC[C@@H](NC(=O)[C@H](C)NC(=O)/C=C/c4ccc(F)cc4F)C(N)=O)C(=O)O)[C@@H](NC(=O)C(C)(C)C)c4ccccc4)C[C@@](O)([C@@H](OC(=O)c4ccccc4)[C@H]21)C3(C)C
19 | CC(=O)O[C@@]12CO[C@@H]1C[C@H](O)[C@@]1(C)C(=O)[C@H](O)C3=C(C)[C@@H](OC(=O)[C@H](OCCC(=O)NCCCC[C@H](NC(=O)CC[C@@H](NC(=O)[C@H](C)NC(=O)/C=C/c4ccc(F)cc4)C(N)=O)C(=O)O)[C@@H](NC(=O)C(C)(C)C)c4ccccc4)C[C@@](O)([C@@H](OC(=O)c4ccccc4)[C@H]21)C3(C)C
30 | CC(=O)O[C@@]12CO[C@@H]1C[C@H](O)[C@@]1(C)C(=O)[C@H](O)C3=C(C)[C@@H](OC(=O)[C@H](OCCC(=O)NCCCC[C@H](NC(=O)CC[C@@H](NC(=O)[C@H](C)NC(=O)/C=C/c4cccc(F)c4)C(N)=O)C(=O)O)[C@@H](NC(=O)C(C)(C)C)c4ccccc4)C[C@@](O)([C@@H](OC(=O)c4ccccc4)[C@H]21)C3(C)C
